Source: paper PMC7297817, “Pharmacological Characterization of a Betaine/GABA Transporter 1 (BGT1) Inhibitor Displaying an Unusual Biphasic Inhibition Profile and Anti-seizure Effects” (Neurochemical Research, 2020)
Like-named read-outs stand apart in the source and are kept apart here.

How the values were obtained:
GABAA rat brain = assay: NIMH PDSP radioligand binding, GABAA rat brain; conditions: 10 μM; radioligand [3H]muscimol; n=4
Protocol: IC50 values in μM (Ki μM)^a. The targets in bold were inhibited by >35% at 10 μM.

M3 = biological target: T1, M3 (Homo sapiens, UniProt P20309); assay: NIMH PDSP radioligand binding, M3
T1 construct: purchased NIMH Psychoactive Drug Screening Program (PDSP)

M1 = biological target: T2, M1 (Homo sapiens, UniProt P11229); assay: NIMH PDSP radioligand binding, M1
T2 construct: purchased NIMH Psychoactive Drug Screening Program (PDSP)

5-HT2C = biological target: T3, 5-HT2C (Homo sapiens, UniProt P28335); assay: NIMH PDSP radioligand binding, 5-HT2C; conditions: radioligand [3H]mesulergine
T3 construct: NIMH PDSP (screening service)

AGS Frings mice = assay: Audiogenic induced seizure test; type: in vivo, mouse
Description: Male audiogenic-susceptible (AGS) Frings mice were obtained from an in-house breeding facility at the University of Utah (Salt Lake City, UT, USA). Male CF-1 mice for the maximal electroshock (MES) test and the subcutaneous pentylenetetrazol (s.c.PTZ) seizure threshold test were purchased from Charles River (Kingston, WA, USA). All mice were housed in a temperature, humidity, and light (on at 6:00 AM) controlled facility at the University of Utah with access to ad libitum food and water except during testing. All procedures were carried out at the University of Utah in concordance with the National Institutes of Health Guidelines for the Care and Use of Laboratory Animals and under approval from the University of Utah’s Institutional Animal Care and Use Committee. The mice were euthanized in accordance with Public Health Service policies on the humane care of laboratory animals. […] The seizures were induced as previously described. In brief, Frings mice were placed in a Plexiglas cylinder (diameter 15 cm, height 18 cm) connected to an audio transducer and exposed to a sound stimulus of 110 decibel (11 kHz) for a duration of 20 s. […] Probit analysis was used to analyse the efficacy and tolerability results obtained from the dose–response studies and to calculate the median effective (ED50) dose, the median toxic dose (TD50), and the 95% confidence interval.

M4 = biological target: T4, M4 (Homo sapiens, UniProt P08173); assay: NIMH PDSP radioligand binding, M4
T4 construct: purchased NIMH Psychoactive Drug Screening Program (PDSP)

5-HT1E = biological target: T5, 5-HT1E (Homo sapiens, UniProt P28566); assay: NIMH PDSP radioligand binding, 5-HT1E; conditions: radioligand [3H]5-HT, n=4
T5 construct: purchased NIMH Psychoactive Drug Screening Program (PDSP)

mGAT3 = biological target: T6, mGAT3 (Mus musculus, UniProt P31650); assay: [3H]GABA uptake at mGAT3 stably expressed in HEK-293 cells; type: cell-based; conditions: N=3
T6 construct: expressed in transfected cells
Protocol: (§1) The HEK-293 and Flp-In CHO cell lines stably expressing mouse (m) and human (h) GATs, respectively, have been described previously and were cultured accordingly. The tsA201 cell line was used for transient expression while the MDCK II cell line express BGT1 endogenously. Both cell lines were cultured as described. tsA201 cells were transfected with DNA constructs (8 μg per 10 cm dish if not otherwise mentioned) using 40 μL PolyFect transfection reagent according to the manufacturer’s protocol (Qiagen, Venlo, Netherlands). The DNA constructs encoding hBGT1, hGAT1-3 [36], the mutated constructs hBGT1 Q299 and hGAT3 L314Q described previously, and hBGT Y453A were synthesized and sequence validated by Genscript (NJ, USA).
(§2) The [^3H]GABA competition uptake assay was performed as previously described. A minor change, however, was introduced for uptake in MDCK II cells, in which 100 nM [^3H]GABA was used for a 15 min incubation period at 37 °C instead of 30 nM [^3H]GABA and 3 min incubation. Studies related to the inhibition curves with GABA and BPDBA at hBGT1 were obtained both with and without the presence of 10 μM ATP during the [^3H]GABA uptake assay.
The [^3H]GABA uptake data was normalized to the percentage of total uptake in the individual experiments in the presence of the lowest compound concentration or no compound present. […]

5-HT6 = biological target: T7, 5-HT6 (Homo sapiens, UniProt P50406); assay: NIMH PDSP radioligand binding, 5-HT6; conditions: radioligand [3H]LSD, n=4
T7 construct: NIMH PDSP (screening service)

canine BGT1 = biological target: T8, canine BGT1 (Canis lupus familiaris, UniProt P27799); assay: [3H]GABA uptake at canine BGT1 endogenously expressed in MDCK II cells; type: cell-based
T8 construct: the MDCK II cell line express BGT1 endogenously; endogenous in cells; host or cells: MDCK II
T8 sequence (P27799 1-614): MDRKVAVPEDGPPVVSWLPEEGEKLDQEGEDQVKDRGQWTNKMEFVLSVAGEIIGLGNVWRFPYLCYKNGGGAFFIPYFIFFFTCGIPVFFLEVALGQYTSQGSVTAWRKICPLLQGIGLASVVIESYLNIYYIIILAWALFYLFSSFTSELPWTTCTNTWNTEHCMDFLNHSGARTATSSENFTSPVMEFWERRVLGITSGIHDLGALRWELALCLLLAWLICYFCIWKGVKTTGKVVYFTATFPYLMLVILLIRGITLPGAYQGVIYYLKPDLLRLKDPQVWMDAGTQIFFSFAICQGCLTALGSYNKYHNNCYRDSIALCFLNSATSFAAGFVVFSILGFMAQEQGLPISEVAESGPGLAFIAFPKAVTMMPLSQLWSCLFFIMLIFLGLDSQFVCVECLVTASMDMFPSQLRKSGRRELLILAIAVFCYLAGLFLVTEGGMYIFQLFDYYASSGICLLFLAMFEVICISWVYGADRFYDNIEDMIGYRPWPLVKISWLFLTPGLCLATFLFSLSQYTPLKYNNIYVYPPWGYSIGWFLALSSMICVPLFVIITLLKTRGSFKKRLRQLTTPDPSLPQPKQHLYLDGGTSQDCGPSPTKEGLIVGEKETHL
Protocol: as §1, §2
The [^3H]GABA uptake data was normalized to the percentage of total uptake in the individual experiments in the presence of the lowest compound concentration or no compound present. Data presented is the pooled data of at least three independent experiments with three technical replicates. Concentration–response curves (CRCs) were fitted with GraphPad Prism (version 8.2.1, Yosemite, GraphPad Software, San Diego, CA, USA) by non-linear regression to the sigmoidal concentration response model: Y=Bottom+(Top-Bottom)/1+10^LogIC50-X∗nH where Top is the Top plateau, Bottom is the Bottom plateau, X is the logarithm of the concentration of the compound, LogIC50 is the concentration giving a response halfway between Top and Bottom,and nH is the Hill slope.
The best fit for CRCs obtained with the [^3H]GABA uptake assay was identified by the extra-sum-of-squares F test (for convenience referred to as F test).

5-HT5A = biological target: T9, 5-HT5A (Homo sapiens, UniProt P47898); assay: NIMH PDSP radioligand binding, 5-HT5A; conditions: radioligand [3H]LSD, n=4
T9 construct: purchased NIMH Psychoactive Drug Screening Program (PDSP)
T9 sequence (P47898 whole entry): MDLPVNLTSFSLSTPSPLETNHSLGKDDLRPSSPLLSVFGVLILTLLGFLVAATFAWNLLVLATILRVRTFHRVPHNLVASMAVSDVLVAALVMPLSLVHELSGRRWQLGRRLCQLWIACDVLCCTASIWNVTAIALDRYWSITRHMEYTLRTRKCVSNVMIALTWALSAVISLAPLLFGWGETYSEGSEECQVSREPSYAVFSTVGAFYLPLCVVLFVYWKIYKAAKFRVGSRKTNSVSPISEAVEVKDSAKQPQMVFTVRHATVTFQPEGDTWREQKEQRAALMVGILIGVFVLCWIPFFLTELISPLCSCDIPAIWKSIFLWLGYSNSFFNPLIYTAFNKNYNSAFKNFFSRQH

T6 sequence (P31650 whole entry): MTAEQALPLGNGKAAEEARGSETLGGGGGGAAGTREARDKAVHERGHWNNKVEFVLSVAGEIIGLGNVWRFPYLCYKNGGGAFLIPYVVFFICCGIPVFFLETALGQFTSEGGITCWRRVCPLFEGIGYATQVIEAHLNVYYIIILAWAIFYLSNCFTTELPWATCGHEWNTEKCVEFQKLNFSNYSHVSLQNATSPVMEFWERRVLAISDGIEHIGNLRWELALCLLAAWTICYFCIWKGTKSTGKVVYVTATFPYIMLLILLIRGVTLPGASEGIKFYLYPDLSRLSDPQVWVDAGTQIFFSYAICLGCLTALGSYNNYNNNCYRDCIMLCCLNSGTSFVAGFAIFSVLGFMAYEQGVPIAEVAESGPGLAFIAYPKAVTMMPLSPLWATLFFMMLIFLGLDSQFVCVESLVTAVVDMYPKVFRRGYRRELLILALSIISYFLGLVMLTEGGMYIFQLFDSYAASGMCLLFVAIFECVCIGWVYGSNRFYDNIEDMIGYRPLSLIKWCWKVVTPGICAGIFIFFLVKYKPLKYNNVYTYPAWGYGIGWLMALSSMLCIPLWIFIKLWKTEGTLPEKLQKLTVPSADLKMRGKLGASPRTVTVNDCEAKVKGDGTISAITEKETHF
T3 sequence (P28335 33-458, species assumed): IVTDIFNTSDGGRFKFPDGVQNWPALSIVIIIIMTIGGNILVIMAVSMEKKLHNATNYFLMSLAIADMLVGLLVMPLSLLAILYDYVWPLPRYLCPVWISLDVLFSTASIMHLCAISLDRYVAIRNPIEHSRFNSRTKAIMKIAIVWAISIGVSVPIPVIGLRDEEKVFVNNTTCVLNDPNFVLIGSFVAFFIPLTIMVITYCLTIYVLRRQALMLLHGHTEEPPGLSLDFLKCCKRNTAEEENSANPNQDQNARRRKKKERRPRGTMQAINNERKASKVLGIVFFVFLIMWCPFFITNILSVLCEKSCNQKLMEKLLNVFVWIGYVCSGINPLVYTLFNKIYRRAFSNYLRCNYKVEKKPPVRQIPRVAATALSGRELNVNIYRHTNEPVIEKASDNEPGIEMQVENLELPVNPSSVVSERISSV
T4 sequence (P08173 whole entry): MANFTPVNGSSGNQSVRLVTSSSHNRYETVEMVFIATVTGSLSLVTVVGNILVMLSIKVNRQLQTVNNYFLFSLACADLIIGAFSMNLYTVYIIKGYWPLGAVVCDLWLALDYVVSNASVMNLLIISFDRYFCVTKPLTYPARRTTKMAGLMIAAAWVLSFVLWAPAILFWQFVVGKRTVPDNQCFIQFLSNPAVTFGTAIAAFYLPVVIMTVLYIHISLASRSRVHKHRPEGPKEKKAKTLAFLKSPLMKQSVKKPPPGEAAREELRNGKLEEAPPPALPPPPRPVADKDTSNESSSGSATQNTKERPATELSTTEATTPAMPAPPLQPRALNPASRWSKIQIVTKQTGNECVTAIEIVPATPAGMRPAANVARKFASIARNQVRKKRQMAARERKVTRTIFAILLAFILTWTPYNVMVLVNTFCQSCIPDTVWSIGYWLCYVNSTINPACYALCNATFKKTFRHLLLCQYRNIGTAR
T2 sequence (P11229 whole entry): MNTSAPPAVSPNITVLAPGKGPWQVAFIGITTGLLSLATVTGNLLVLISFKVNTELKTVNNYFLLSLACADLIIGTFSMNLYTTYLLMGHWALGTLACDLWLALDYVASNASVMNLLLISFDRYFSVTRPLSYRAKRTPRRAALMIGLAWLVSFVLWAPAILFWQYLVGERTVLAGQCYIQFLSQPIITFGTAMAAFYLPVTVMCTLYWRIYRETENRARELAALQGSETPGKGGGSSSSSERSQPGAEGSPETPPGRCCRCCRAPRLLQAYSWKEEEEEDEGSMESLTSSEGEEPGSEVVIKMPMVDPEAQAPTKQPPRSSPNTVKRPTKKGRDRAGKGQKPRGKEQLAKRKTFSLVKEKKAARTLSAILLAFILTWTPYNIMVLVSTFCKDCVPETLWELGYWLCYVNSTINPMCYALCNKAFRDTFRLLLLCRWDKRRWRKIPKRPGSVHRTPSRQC
T1 sequence (P20309 whole entry): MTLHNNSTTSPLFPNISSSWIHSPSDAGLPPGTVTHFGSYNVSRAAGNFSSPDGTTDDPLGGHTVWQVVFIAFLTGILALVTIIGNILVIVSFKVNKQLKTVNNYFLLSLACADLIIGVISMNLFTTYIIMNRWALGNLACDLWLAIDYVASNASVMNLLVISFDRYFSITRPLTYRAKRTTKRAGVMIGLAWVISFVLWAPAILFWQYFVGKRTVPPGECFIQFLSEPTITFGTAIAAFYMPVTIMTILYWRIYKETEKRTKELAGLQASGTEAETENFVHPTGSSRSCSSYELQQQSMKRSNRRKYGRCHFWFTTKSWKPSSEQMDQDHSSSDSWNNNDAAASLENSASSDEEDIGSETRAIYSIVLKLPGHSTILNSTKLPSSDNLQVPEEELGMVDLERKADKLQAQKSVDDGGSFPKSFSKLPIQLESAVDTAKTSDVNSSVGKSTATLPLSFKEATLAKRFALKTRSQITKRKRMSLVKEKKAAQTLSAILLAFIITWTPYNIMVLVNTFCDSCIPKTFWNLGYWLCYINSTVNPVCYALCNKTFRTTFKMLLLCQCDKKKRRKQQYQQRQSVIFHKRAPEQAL
T5 sequence (P28566 whole entry): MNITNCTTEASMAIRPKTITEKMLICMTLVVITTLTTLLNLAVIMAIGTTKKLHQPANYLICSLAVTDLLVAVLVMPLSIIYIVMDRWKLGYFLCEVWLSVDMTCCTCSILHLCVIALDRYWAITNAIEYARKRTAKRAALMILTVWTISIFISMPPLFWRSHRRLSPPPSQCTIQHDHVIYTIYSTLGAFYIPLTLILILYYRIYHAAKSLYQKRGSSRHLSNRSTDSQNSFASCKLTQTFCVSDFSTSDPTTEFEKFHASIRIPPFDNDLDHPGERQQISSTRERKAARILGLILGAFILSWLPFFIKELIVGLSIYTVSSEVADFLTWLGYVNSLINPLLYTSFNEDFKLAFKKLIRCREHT
T7 sequence (P50406 whole entry, species assumed): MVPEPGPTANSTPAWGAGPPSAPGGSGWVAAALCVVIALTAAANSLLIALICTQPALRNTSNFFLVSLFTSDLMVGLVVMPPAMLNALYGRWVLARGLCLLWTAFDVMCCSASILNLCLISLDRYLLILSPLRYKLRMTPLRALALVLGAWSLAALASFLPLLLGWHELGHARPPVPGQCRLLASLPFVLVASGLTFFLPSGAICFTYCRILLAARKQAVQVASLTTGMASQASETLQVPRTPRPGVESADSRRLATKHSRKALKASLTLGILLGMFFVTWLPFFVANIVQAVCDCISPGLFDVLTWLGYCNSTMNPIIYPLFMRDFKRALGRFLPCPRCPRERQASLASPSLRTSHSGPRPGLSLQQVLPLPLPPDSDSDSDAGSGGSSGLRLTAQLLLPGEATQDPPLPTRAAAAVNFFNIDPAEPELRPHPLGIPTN

For `Cc1ccsc1C(=CCCN(C)[C@H]1CCCC[C@H]1C(=O)O)c1sccc1C` [SBV2-114, (1R,2S)-2-((4,4-bis(3-methylthiophen-2-yl)but-3-en-yl)(methyl)amino)cyclohexanecarboxylic acid], the “% inhibition” value (GABAA rat brain) was -1.5%, the inhibition at 10 µM (M3) was 55.4% and the inhibition at 10 µM (M1) was 18.3%. For the same compound, the inhibition at 10 µM (5-HT2C; 10 μM, n=4) was 77.5%, the Ki (5-HT2C; full curve) was 0.67 µM and the “#Protected/#Tested” value (AGS Frings mice; 50 mg/kg i.p., 15 min) was 3/4. For the same compound, the “#Protected/#Tested” value (AGS Frings mice; 50 mg/kg i.p., 30 min) was 2/4, the “#Protected/#Tested” value (AGS Frings mice; 50 mg/kg i.p., 60 min) was 1/4 and the “#Protected/#Tested” value (AGS Frings mice; 50 mg/kg i.p., 120 min) was 0/4. The “#Protected/#Tested” value (AGS Frings mice; 120 mg/kg i.p., 30 min) was 4/4, the “#Protected/#Tested” value (AGS Frings mice; 120 mg/kg i.p., 60 min) was 3/4 and the “#Protected/#Tested” value (AGS Frings mice; 120 mg/kg i.p., 120 min) was 2/4. For the same compound, the “#Protected/#Tested” value (AGS Frings mice; 120 mg/kg i.p., 240 min) was 1/4, the brain permeance (AGS Frings mice; concluded from seizure protection after i.p. dosing) was “brain-permeant” and the “time-to peak (TPE)” value (AGS Frings mice; i.p., Frings mice, a faster TPE cannot be excluded) was 15 min. The inhibition at 10 µM (M4) was -5.7%, the inhibition at 10 µM (5-HT1E) was -12.9% and the IC50 (mGAT3; ambiguous fit) was over 1000 µM. The Fit (mGAT3; preferred model) was “Ambiguous”, the inhibition at 10 µM (5-HT6) was 50% and the Frac (canine BGT1) was 0.38. The IC50 (canine BGT1; IC50, high affinity component, biphasic fit, 100 nM [3H]GABA, 15 min) was 0.1 µM, the IC50 (canine BGT1; pIC50 ± S.E.M., high affinity component, biphasic fit, 100 nM [3H]GABA, 15 min) was 0.105 µM and the IC50 (canine BGT1; read-out: IC50, low affinity component, biphasic fit, 100 nM [3H]GABA, 15 min) was 251 µM. It also gave an inhibition at 10 µM (5-HT5A) of 36.6%.
